# In US20120245229A1, “METHOD FOR TREATING NEUROPATHIC PAIN” (priority 2009, published 2012):
# How the values were obtained:
# [1] = system: formalin-induced inflammatory pain; assay: Formalin-induced spontaneous inflammatory pain (licking/flinching duration); assay type: in vivo, mice
# Protocol: (§1) Animals and pain models. Adult CD1 mice (male, 25-32 g) were used for most experiments. Knockout mice were used lacking TNFR1/II (Tnfrsf1a/1b^−/−) and TRPV1 (Trpv1^−/−) and C57BL/6 wild-type control mice, all from Jackson, for some experiments. All animal procedures performed in this study were approved by the Harvard Medical Area Standing Committee on Animals. 20 μl of diluted formalin (5%), carrageenan (CRG, 1%), or complete Freund's adjuvant (CFA) were injected into the plantar surface of a hindpaw to produce acute, persistent, or chronic inflammatory pain, respectively. Postoperative pain was also produced through hindpaw incision^36 and neuropathic pain by ligation of the spinal nerve^37.
# Reagents and administration. RvE1 and RvD1 were suspended in 1% or 10% ethanol as vehicle for investigating acute (<1 h) and persistent (1-6 h) effects of resolvins on inflammatory pain. The reagents (10 μl) were delivered to the cerebral spinal fluid via intrathecal injection made by a spinal cord puncture between the L5 and L6 level with a 30G needle^38.
# (§2) Behavioral analysis. Mice were habituated in the testing environment for two days and performed behavioral testing in a blinded manner. Formalin-evoked spontaneous inflammatory pain was assessed by measuring duration (seconds) animals spent on licking/flinching the affected paws every 5 min for 45 min. Capsaicin-induced spontaneous pain was aslo assessed for 10 min. For testing mechanical sensitivity, mice were put in boxes on an elevated metal mesh floor and stimulated hindpaw with a series of von Frey hairs with logarithmically incrementing stiffness (0.02-2.56 grams, Stoelting), presented perpendicular to the plantar surface. It was determined the 50% paw withdrawal threshold using Dixon's up-down method^40. For testing heat sensitivity, mice were placed in plastic boxes and tested heat sensitivity using Hargreaves radiant heat apparatus (IITC Life Science Inc.). The basal paw withdrawal latency was adjusted to 9-12 seconds and set a cut-off of 20 seconds to prevent tissue damage. The percent maximal possible antinociceptive effect (% M.P.E) was calculated using the equation % M.P.E.=[(PL−BL2)/(BL1−BL2)]×100. BL1, baseline latency before inflammation; BL2, baseline latency after inflammation but before drug injection; PL, latency post drug injection.
# Intrathecal injection. To avoid systemic effects of drugs and target spinal mechanisms, drugs were delivered into cerebral spinal fluid (CSF) space around lumbosacral spinal cord via intrathecal (i.t.) administration. Spinal cord puncture was made with a 30G needle between the L5 and L6 level to deliver the reagents (10 μl) to the cerebral spinal fluid (Hylden and Wilcox, 1980)^5. […] In addition to spinal cord cells, intrathecal drug administration also affects DRG cells^6,7.
# Intrathecal injection: DHA and EPA (Cayman Chemical, 10 μg, prepared in 1% ethanol), COX-2 inhibitor NS-398 (Sigma, 0.1, 1, and 10 μg, prepared in 1% ethanol in FIG. 1a-c or in 10% ethanol in FIG. 2c), morphine (Sigma, 10 to 500 ng, prepared in 1% ethanol in FIG. 1a-c), naloxone (Sigma, 2 μg, prepared in 1% ethanol), pertussis toxin (Tocris Bioscience, 0.2 μg, prepared in saline), chemerin (R & D Systems, 0.45 to 100 ng, prepared in 1% ethanol), TNF-α (R & D Systems, 20 ng, prepared in saline), and capsaicin (Sigma, 0.5 μg in 10 μl, prepared in 1% DMSO) were delivered. To examine whether pretreatment of RvE1 attenuated TNF-α-induced persistent hyperalgesia at 1, 3, and 24 h, RvE1 and TNF-α were mixed and injected at the same time (FIG. 3c). To examine whether pretreatment of RvE1 attenuates capsaicin-induced acute spontaneous pain, RvE1 and capsaicin were mixed and injected at the same time (FIG. 3f).
# [2] = system: ERK phosphorylation; assay: ERK phosphorylation (pERK) in superficial dorsal horn neurons of spinal slices; assay type: cell-based, mice; settings: TNF-α 10 ng/ml, 5 min
# Protocol: Spinal cord slice preparation. As previously reported^39, a portion of the lumbar spinal cord (L4-L5) was removed from young mice (3-4 week old) under urethane anesthesia (1.5-2.0 g/kg, i.p.) and transverse spinal cord slices were cut (600 μm) on a vibrating microslicer. The slices were perfused with Kreb's solution (8 ml/min) for >2 h prior to experiments. Some slices were stimulated with TNF-α (10 ng/ml, 5 min), the slices were fixed with 4% paraformaldehyde for 1 h, and processed pERK immunohistochemistry using thin sections (15 μm)^13.
# Resolvins were also used for intraplantar injection. RvD1 or RvE1 was injected into the plantar surface of a hindapaw [20 ng, 20 μl , in 1% ethanol (Supplementary FIG. 5a, 5b) or in 10% ethanol (FIG. 2e, Supplementary FIG. 1d)]. […]
# PERK immunohistochemistry in the spinal cord: Transverse spinal cord slices (600 μm) were cut on a vibrating microslicer. […] The stained sections were examined with a Nikon fluorescence microscope, and images were captured with a CCD Spot camera. The number of pERK-immunoreactive cells in the superficial dorsal horn (laminae I-III) was quantified in 5 spinal cord sections from each slice and averaged for that slice, and 4-5 slices from separate animals were included for data analysis^12.
# [3] = system: inflammatory pain; assay: Inflammatory pain models induced by formalin or CFA (summary statements); assay type: in vivo, mouse
# Protocol: as §1, §2
# [4] = system: neutrophil infiltration; assay: Myeloperoxidase (MPO) assay of neutrophil infiltration in the inflamed paw; assay type: in vivo, mice; settings: intraplantar pretreatment; 4 h after CRG injection
# Protocol: Myeloperoxidase assay. Paw inflammation is associated with infiltration of neutrophils (polymorphonuclear cells), and myeloperoxidase (MPO) activity is often used to quantify neutrophil activation to evaluate the magnitude of paw inflammation. To determine MPO assay, fresh skin tissues were suspended in phosphate buffer and homogenized. The suspension was centrifuged and the supernatant was assayed for MPO activity using a MPO Activity Assay Kit (Northwest Life Science Specialties, LLC). Each reaction was performed according to manufacturer's protocol. Briefly, hypochlorous acid (HOCl) is formed from MPO catalyzed reaction between chloride and hydrogen peroxide. HOCl is rapidly trapped by β-amino acid taurine to form a stable oxidant taurine chloramine. Taurine chloramine is then allowed to react with 5-thio-2-nitrobenzoic acid (TNB). TNB has a chromophore that has maximal absorbance at 412 nm while its reaction product with taurin chloramine is colorless. The color change is detected by spectrophotometry. By following the decrease of absorbance at 412 nm, MPO activity is measured. One unit is the amount of MPO that can produce 1.0 nmole of taurine chloramine at pH 6.5 and 25° C. during 30 minutes in the presence of 100 mM chloride and 100 μM of hydrogen peroxide.
compound,measurement,setting,value
"CC[C@@H](O)/C=C/C=C\C[C@@H](O)/C=C/C=C/C=C\[C@@H](O)CCCC(=O)O [RvE1, 5S,12R,18R-trihydroxyeicosapentaenoic acid]","effective dose range compared with morphine and NS-398, formalin 2nd phase","[1]; intrathecal, dose response curve FIG. 1c",much lower than that of either morphine or the COX-2 inhibitor NS-398
same,"formalin-induced pain behavior, 1st phase","[1]; preemptive intrathecal injection, RvE1 0.3 and 1.0 ng",not the 1st phase
same,"formalin-induced pain behavior, 2nd phase","[1]; preemptive intrathecal injection, RvE1 0.3 and 1.0 ng, morphine 10 to 500 ng, NS-398 0.1, 1, and 10 μg, chemerin 0.45 to 100 ng",reduced
same,TNF-α-induced ERK phosphorylation in superficial dorsal horn neurons,[2],reduced the phosphorylation
same,pain-like behaviors,[3],potently inhibit
same,neutrophil infiltration (MPO activity),[4],reducing
